Patent US11883459B2, “Thiol isomerases inhibitors for the treatment and prevention of food allergies, allergic diseases, and inflammatory diseases” (WESTERN NEW ENGLAND UNIVERSITY, priority 2018, dated 2024)
Where a SMILES comes first, the peptide text is derived from it. Bridges are numbered along the chain shown (N, C = ends). [ ]: non-standard residue; d: D form. The star is where a group is joined. Ileψ(thiazoline)Cys = CC[C@H](C)[C@H](N)C1=N[C@H](C(=O)*)CS1; dOrn = NCCC[C@@H](N)C(=O)O

Columns and labels:
[1] = system: bone marrow-derived mast cells (BMMCs); test: cytokine production from IgE/antigen-activated bone marrow-derived mast cells (ELISA); format: cell-based, BALB/c mice; conditions: for activation of mast cells: DNP-IgE priming, DNP-BSA challenge; for production of mast cell cytokines such as TNF-a, IL-6, and IL-13: DNP-IgE/DNP-BSA
Experimental: In this study, bone marrow-derived mast cells (BMMCs) were treated with the known PDI inhibitors bacitracin and rutin, and mast cell activation was assessed. BMMCs were generated from BALB/c mice and grown in 10 ng/ml IL-3 and 10 ng/ml stem cell factor (SCF) for 4-8 weeks. One million BMMCs in triplicates were cultured with various concentrations of the PDI inhibitors Bacitracin (Bac) and Rutin (RH) for 1 day or 7 days. Some cells were activated by priming cells with DNP-IgE (Dinitrophenyl IgE) antibodies and challenging with DNP-BSA (dinitrophenyl-bovine serum albumin). Cytokine levels (IL-4, IL-13, TNF-alpha, and IL-6 in FIGS. 1A-1D, respectively) were assessed in the supernatants 24 hr later by ELISA. FIG. 1A-1D show treatment of mast cells with PDI inhibitor Bacitracin or Rutin inhibits the activation of mast cells and the production of mast cell cytokines such as TNF-a, IL-6, and IL-13. In this study, BMMCs were treated with the known PDI inhibitor PACMA-31, and mast cell activation was assessed. Bone marrow derived mast cells (BMMCs) were generated from BALB/c mice and grown in 10 ng/ml IL-3 and 10 ng/ml SCF for 4-8 weeks. 1 million BMMCs in triplicates were cultured with 30 μM PACMA-31 (Sigma-Aldrich) for 30 minutes. Some cells were activated by priming cells with DNP-IgE antibodies and challenging with DNP-BSA. Cytokine levels (IL-13, TNF-alpha, and IL-6 in FIGS. 2A-2C) were assessed in the supernatants 6 hrs later by ELISA. FIG. 2A-2C show treatment of mast cells with the specific PDI inhibitor PACMA-31 inhibits the activation of mast cells and the production of mast cell cytokines such as TNF-a, IL-6, and IL-13.

[2] = system: ovalbumin-induced food allergy; test: mouse model of ovalbumin-induced, mast cell-mediated food allergy; format: in vivo, BALB/c mice
Experimental: In this study, wild-type (Wt) mice were sensitized and challenged with ovalbumin and treated with PACMA-31 to determine whether PDI inhibition can modulate the development of food allergy. BALB/c mice were sensitized intraperitoneally (i.p.) with 50 μg ovalbumin (OVA) and 1 mg alum on day zero (d0) and d14. On day 28, some groups of mice were challenged intragastrically with 50 mg OVA once a day on 6 alternating days. Some groups of mice were treated with 300 μg PACMA-31 (P-31) intragastrically daily starting d27. […] The development of allergic diarrhea in this model is dependent on mast cell activation. […] In FIGS. 3A-3F, Wt Cont=wild-type, Control; Wt OVA=wild-type, ovalbumin; Wt+P31 Cont=wild-type, PACMA-31, Control; and Wt+P31 OVA=wild-type, PACMA-31, ovalbumin. FIG. 3A-3F show oral treatment of mice undergoing food allergy with PACMA-31 results in attenuation of the allergic response including mast cell protease levels which indicate mast cell activation (mMCP-1), OVA-IgE levels, and Th2 cytokine levels.

[3] = known property; cited from earlier work
[4] = wild-type mice, ovalbumin-induced food allergy

SMILES: CC[C@H](C)[C@H](N)C1=N[C@H](C(=O)N[C@@H](CC(C)C)C(=O)N[C@H](CCC(=O)O)C(=O)N[C@H](C(=O)N[C@H]2CCCCNC(=O)[C@H](CC(N)=O)NC(=O)[C@@H](CC(=O)O)NC(=O)[C@H](Cc3cnc[nH]3)NC(=O)[C@@H](Cc3ccccc3)NC(=O)[C@H]([C@@H](C)CC)NC(=O)[C@@H](CCCN)NC2=O)[C@@H](C)CC)CS1 [Bacitracin, bacitracin] ({Ileψ(thiazoline)Cys}-L[dE]IK[dOrn]I[dF]H[dD]N; lactam 4-C)
- activation of mast cells ([1]; BMMCs cultured with various concentrations for 1 day or 7 days, FIGS. 1A-1D): inhibits
- production of mast cell cytokines such as TNF-a, IL-6, and IL-13 ([1]; BMMCs cultured with various concentrations for 1 day or 7 days, supernatants 24 hr later by ELISA, FIGS. 1A-1D): inhibits

SMILES: C#CC(=O)N(c1ccc(OC)cc1OC)C(C(=O)NCC(=O)OCC)c1cccs1 (stereo not drawn) [PACMA-31, N-(2,4-dimethoxyphenyl)-N-(1-oxo-2-propyn-1-yl)-2-(2-thienyl)glycylglycine ethyl ester]
- mast cell protease levels which indicate mast cell activation (serum mMCP-1) ([2]; 300 μg intragastrically daily from d27, OVA-sensitized and challenged mice, FIG. 3A): attenuation
- serum OVA-IgE levels ([2]; 300 μg intragastrically daily from d27, OVA-sensitized and challenged mice, FIG. 3B): attenuation
- Th2 cytokine levels in supernatants of spleen cells restimulated with OVA ([2]; 300 μg intragastrically daily from d27, OVA-sensitized and challenged mice, FIGS. 3C-3F): attenuation
- allergen-specific IgE [2, 4]: decreases
- development of food allergy symptoms [2, 4]: significant attenuation
- mast cell activation [2, 4]: decreases
- allergic diarrhea ([2]; wild-type mice, ovalbumin-induced food allergy, observed one hour after 6th challenge): decreases
- oral bioavailability [3]: orally bioavailable
- activation of mast cells ([1]; BMMCs cultured with 30 μM for 30 minutes, FIGS. 2A-2C): inhibits
- production of mast cell cytokines such as TNF-a, IL-6, and IL-13 ([1]; BMMCs cultured with 30 μM for 30 minutes, supernatants 6 hrs later by ELISA, FIGS. 2A-2C): inhibits
